According to US8093216B2, “Method of treating cancer by inhibition of p95HER-2 production” (Oregon Health & Science University, priority 1998, dated 2012):
Entries after “also recorded” stand apart in the source; their conditions may differ.

Experiments:
[1] = tested on: p95HER-2; assay: Cell level of truncated p95HER-2, Western blot of cell extracts with anti-neu (C), BT474 cells; type: cell-based, human
Experimental: BT474 cells in serum-free medium were treated for 24 hrs with the control vehicle or with 1, 10, 20, and 40 μM TAPI (a gift from Immunex, Seattle, Wash.). In the top panel (FIG. 5A), the concentrated, conditioned media, normalized to the amount of cell extract, were analyzed by western blotting with anti-neu (N). […] In the lower panel (FIG. 5B), 20 μg of cell proteins were analyzed by Western blotting using anti-neu (C). […]
Therefore, effects of different concentrations of the hydroxamic acid, TAPI (Mohler et al., Nature 370:218-220, 1994) was tested on shedding of HER-2/neu ECD and on cell levels of p95.

[2] = tested on: p95HER-2; assay: p95HER-2 level in a further, unnamed cell line treated with TAPI; type: cell-based
[3] = tested on: p185HER-2/neu; assay: p185HER-2/neu level in treated cells, Western blot with anti-neu (C); type: cell-based, human; details: cells treated with TAPI
Experimental: BT474 cells in serum-free medium were treated for 24 hrs with the control vehicle or with 1, 10, 20, and 40 μM TAPI (a gift from Immunex, Seattle, Wash.). In the top panel (FIG. 5A), the concentrated, conditioned media, normalized to the amount of cell extract, were analyzed by western blotting with anti-neu (N). Similar results were obtained when 5 μg of protein from the conditioned media from each culture were analyzed.
This example illustrates that a metalloprotease inhibitor depressed levels of p95HER-2 and ECD from BT474 cells. Shedding of diverse transmembrane proteins is inhibited by hydroxamic acid-based compounds, which are potent metalloproteinase inhibitors (McGeehan et al., Nature 370:561, 1994; Mohler et al., Nature 370:218-220, 1994; and Arribas et al., J. Biol. Chem. 271:11376-11382, 1996). Therefore, effects of different concentrations of the hydroxamic acid, TAPI (Mohler et al., Nature 370:218-220, 1994) was tested on shedding of HER-2/neu ECD and on cell levels of p95. TAPI (0 to 40 μM) was added to cultured BT474 cells for 24 hrs, the ECD in concentrated conditioned media was analyzed by immunoblotting with anti-neu (N), and p95HER-2 and p185HER-2 polypeptides were examined in cell extracts using an anti-neu (C) monoclonal antibody. […] A residual amount of about 10% of the ECD resisted inhibition by even 40 μM TAPI.

[4] = tested on: HER-2/neu ECD; assay: Shedding of HER-2/neu ECD into conditioned media, Western blot with anti-neu (N), BT474 cells; type: cell-based, human
Experimental: Cells were treated for 24 hrs in serum-free medium with control vehicle or with 500 nM of the phorbol ester TPA and 50 μM chloroquine. In the top panel (FIG. 4A), 5 ml of conditioned media was concentrated 100 fold, denatured under nonreducing conditions, and aliquots normalized to cell extract protein were analyzed by western blotting with anti-neu (N) monoclonal antibody at 1 μg/ml. In the lower panel (FIG. 4B), 20 μg of cell proteins were analyzed by Western blotting using anti-neu (C). The data shown in FIG. 4 are representative of three replicate experiments.
BT474 cells in serum-free medium were treated for 24 hrs with the control vehicle or with 1, 10, 20, and 40 μM TAPI (a gift from Immunex, Seattle, Wash.). In the top panel (FIG. 5A), the concentrated, conditioned media, normalized to the amount of cell extract, were analyzed by western blotting with anti-neu (N). […] In the lower panel (FIG. 5B), 20 μg of cell proteins were analyzed by Western blotting using anti-neu (C).
Tyrosine phosphorylation of tyrosine kinase receptors generally indicates their activation in signaling (Hynes et al., Biochem. Biophys. Acta 1198:165-184, 1994; and Dougall et al., Oncogene 9: 2109-2123, 1994). The tyrosine phosphorylation of p95HER-2, and its subcellular location were examined by fractionation of BT474 cell extracts into a soluble fraction and a particulate fraction. Each fraction was immunoprecipitated with anti-neu (C) and then subjected to Western blot analysis using monoclonal antibodies against phosphotyrosine. […]
To determine whether p95HER-2 and ECD were coordinately regulated, TPA (500 nM) and chloroquine (50 μM) or the control vehicle were added to the culture media of BT474 and SKOV3 cells. […] At 24 hrs, the ECD levels in the extracellular media and p95HER-2 levels in the cell extract were analyzed. […]

[5] = 1 μM TAPI, three separate experiments
[6] = BT474 cells, 24 hrs, 1, 10, 20 and 40 μM TAPI

TAPI
inhibition of p95HER-2 level [1, 5]: ≤ 50%
level of truncated p95HER-2 at 1 μM TAPI ([1]; BT474 cells, 24 hrs, 1 μM): little or no effect
effect on p95HER-2 level [1, 6]: inhibited; also recorded: suppressed
effect on p95HER-2 in a cell line [2]: increased
change in p185HER-2/neu levels [3]: No change
inhibition of ECD level [4, 5]: ≤ 50%
effect on ECD level [4, 6]: inhibited; also recorded: suppressed
production of ECD at 1 μM TAPI ([4]; BT474 cells, serum-free medium, 24 hrs, 1 μM): partially inhibited
